Format in all cases: functional
The test system of assay [1] is Staphylococcus aureus. Description: Minimum inhibitory concentration required for the antibacterial activity against Staphylococcus aureus 21b Belgium.
Assay [2] relates to Staphylococcus aureus. The experiment in a line: Minimum inhibitory concentration required for the antibacterial activity against Staphylococcus aureus 25085.
For assay [3], the system named is Staphylococcus aureus. Description: Minimum inhibitory concentration required for the antibacterial activity against Staphylococcus aureus 25768.
The subject of assay [4] is Staphylococcus aureus. The experiment in a line: Minimum inhibitory concentration required for the antibacterial activity against Staphylococcus aureus 90 Innsbruck.
The subject of assay [5] is Staphylococcus aureus. The experiment in a line: Minimum inhibitory concentration required for the antibacterial activity against Staphylococcus aureus 77 Innsbruck.
In assay [6] the test system is Staphylococcus aureus. Description: Minimum inhibitory concentration required for the antibacterial activity against Staphylococcus aureus 25470.
In assay [7] the test system is Staphylococcus aureus. Description: Minimum inhibitory concentration required for the antibacterial activity against Staphylococcus aureus 48N Munchen.
Assay [8] concerns Staphylococcus aureus. Description: Minimum inhibitory concentration required for the antibacterial activity against Staphylococcus aureus 1756. The conditions noted are these: Staphylococcus aureus; read-out: MIC.
Assay [9] concerns Staphylococcus aureus. Description: Minimum inhibitory concentration required for the antibacterial activity against Staphylococcus aureus 17N Munchen.
For assay [10], the system named is Staphylococcus aureus. The experiment in a line: Minimum inhibitory concentration required for the antibacterial activity against Staphylococcus aureus 79B Innsbruck.
In assay [11] the test system is Staphylococcus aureus. The experiment in a line: Minimum inhibitory concentration required for the antibacterial activity against Staphylococcus aureus 4978 Israel.
For assay [12], the system named is Staphylococcus aureus. The experiment in a line: Minimum inhibitory concentration required for the antibacterial activity against Staphylococcus aureus 25464.
Assay [13] concerns Staphylococcus aureus. Description: Minimum inhibitory concentration required for the antibacterial activity against Staphylococcus aureus 25463.
The test system of assay [14] is Staphylococcus aureus. Description: Minimum inhibitory concentration required for the antibacterial activity against Staphylococcus aureus 25697.
Assay [15] relates to Staphylococcus aureus. The experiment in a line: Minimum inhibitory concentration required for the antibacterial activity against Staphylococcus aureus 13N Munchen.
Assay [16] relates to Staphylococcus aureus. Description: Minimum inhibitory concentration required for the antibacterial activity against Staphylococcus aureus 41h Belgium.
Assay [17] relates to Staphylococcus aureus. Description: Minimum inhibitory concentration required for the antibacterial activity against Staphylococcus aureus 86 Innsbruck.
Assay [18] has as its system Staphylococcus aureus. The experiment in a line: Minimum inhibitory concentration for the antibacterial activity against Staphylococcus aureus 48N Munchen.

Converted amounts (≈) assume the structure as drawn.

The text below walks through data of ChEMBL document CHEMBL1127134, “Synthesis and antibacterial activity of (1R,5R,6R)-2-tert-butyl-6-(1-hydroxyethyl)oxapenem-3-carboxylic acid” (1993).

`O=C(O)c1cn(C2CC2)c2cc(N3CCNCC3)c(F)cc2c1=O` [CIPROFLOXACIN]: the minimal inhibitory concentration (MIC) (commonly the lowest concentration that inhibits growth of the organism) was 50 µg/mL (≈ 151 µM) in the assay on Staphylococcus aureus [1]; ≤ 0.78 µg/mL against Staphylococcus aureus [2]; 100 µg/mL (≈ 302 µM) in the assay on Staphylococcus aureus [3]; 12.5 µg/mL (≈ 37.7 µM) in the assay on Staphylococcus aureus [4]; > 100 µg/mL in the assay on Staphylococcus aureus [5]; ≤ 0.78 µg/mL in the assay on Staphylococcus aureus [6]. For the same compound, the minimal inhibitory concentration (MIC) in the assay with Staphylococcus aureus [7] is 12.5 µg/mL (≈ 37.7 µM); with Staphylococcus aureus [8] it was ≤ 0.78 µg/mL; in the assay with Staphylococcus aureus [9], 12.5 µg/mL (≈ 37.7 µM); in the assay on Staphylococcus aureus [10], 100 µg/mL (≈ 302 µM); in the assay on Staphylococcus aureus [11], ≤ 0.78 µg/mL; with Staphylococcus aureus [12], ≤ 0.78 µg/mL. Further, the MIC worked out at 1.56 µg/mL (≈ 4.71 µM) in the assay on Staphylococcus aureus [13]; 12.5 µg/mL (≈ 37.7 µM) with Staphylococcus aureus [14]; 1.56 µg/mL (≈ 4.71 µM) against Staphylococcus aureus [15]; 100 µg/mL (≈ 302 µM) with Staphylococcus aureus [16]; 100 µg/mL (≈ 302 µM) in the assay on Staphylococcus aureus [17].
As to `CO[C@@]1(NC(=O)Cc2cccs2)C(=O)N2C(C(=O)O)=C(COC(N)=O)CS[C@@H]21` [CEFOXITIN], the MIC was ≤ 0.78 µg/mL in the assay on Staphylococcus aureus [1]; 12.5 µg/mL (≈ 29.2 µM) in the assay on Staphylococcus aureus [2]; 12.5 µg/mL (≈ 29.2 µM) with Staphylococcus aureus [3]; 100 µg/mL (≈ 234 µM) in the assay on Staphylococcus aureus [4]; 25 µg/mL (≈ 58.5 µM) in the assay on Staphylococcus aureus [5]; > 100 µg/mL with Staphylococcus aureus [6]. The MIC was 6.25 µg/mL (≈ 14.6 µM) against Staphylococcus aureus [7]; 50 µg/mL (≈ 117 µM) with Staphylococcus aureus [8]; 12.5 µg/mL (≈ 29.2 µM) in the assay with Staphylococcus aureus [9]; 25 µg/mL (≈ 58.5 µM) with Staphylococcus aureus [10]; 1.56 µg/mL (≈ 3.65 µM) in the assay on Staphylococcus aureus [11]; 50 µg/mL (≈ 117 µM) with Staphylococcus aureus [12]. Further, the MIC with Staphylococcus aureus [13] was 1.56 µg/mL (≈ 3.65 µM); against Staphylococcus aureus [14] it was 12.5 µg/mL (≈ 29.2 µM); in the assay on Staphylococcus aureus [15] it was > 100 µg/mL; against Staphylococcus aureus [16] it was 1.56 µg/mL (≈ 3.65 µM); in the assay with Staphylococcus aureus [17] it was 12.5 µg/mL (≈ 29.2 µM).
Consider `Cc1onc(-c2ccccc2)c1C(=O)N[C@@H]1C(=O)N2[C@@H]1SC(C)(C)[C@@H]2C(=O)O` [OXACILLIN], for which the minimum inhibitory concentration (MIC) is > 100 µg/mL in the assay on Staphylococcus aureus [1]; 3.12 µg/mL (≈ 7.77 µM) against Staphylococcus aureus [2]; 6.25 µg/mL (≈ 15.6 µM) with Staphylococcus aureus [3]; > 100 µg/mL against Staphylococcus aureus [4]; 100 µg/mL (≈ 249 µM) in the assay with Staphylococcus aureus [5]; 100 µg/mL (≈ 249 µM) with Staphylococcus aureus [6]. Also, the minimum inhibitory concentration (MIC) against Staphylococcus aureus [7] was ≤ 0.78 µg/mL; in the assay with Staphylococcus aureus [8], 50 µg/mL (≈ 125 µM); in the assay on Staphylococcus aureus [9], 1.56 µg/mL (≈ 3.89 µM); in the assay with Staphylococcus aureus [10], 50 µg/mL (≈ 125 µM); with Staphylococcus aureus [11], ≤ 0.78 µg/mL; in the assay with Staphylococcus aureus [12] it was > 100 µg/mL. The MIC against Staphylococcus aureus [13] is 1.56 µg/mL (≈ 3.89 µM); against Staphylococcus aureus [14] it was 1.56 µg/mL (≈ 3.89 µM); with Staphylococcus aureus [15] it was > 100 µg/mL; with Staphylococcus aureus [16] it was > 100 µg/mL; against Staphylococcus aureus [17], 100 µg/mL (≈ 249 µM).
In the case of `COc1cccc(OC)c1C(=O)N[C@@H]1C(=O)N2[C@@H]1SC(C)(C)[C@@H]2C(=O)O` [METHICILLIN], the MIC was > 100 µg/mL with Staphylococcus aureus [1]; 6.25 µg/mL (≈ 16.4 µM) against Staphylococcus aureus [2]; 6.25 µg/mL (≈ 16.4 µM) with Staphylococcus aureus [3]; 50 µg/mL (≈ 131 µM) against Staphylococcus aureus [4]; 50 µg/mL (≈ 131 µM) against Staphylococcus aureus [5]; > 100 µg/mL with Staphylococcus aureus [6]. In addition, the MIC with Staphylococcus aureus [8] was 50 µg/mL (≈ 131 µM); against Staphylococcus aureus [9], 3.12 µg/mL (≈ 8.2 µM); against Staphylococcus aureus [10], 25 µg/mL (≈ 65.7 µM); against Staphylococcus aureus [11], ≤ 0.78 µg/mL; against Staphylococcus aureus [12], > 100 µg/mL; in the assay with Staphylococcus aureus [13] it was 1.56 µg/mL (≈ 4.1 µM). In addition, the minimal inhibitory concentration (MIC) in the assay with Staphylococcus aureus [14] is 6.25 µg/mL (≈ 16.4 µM); with Staphylococcus aureus [18], 6.25 µg/mL (≈ 16.4 µM); in the assay with Staphylococcus aureus [15], 50 µg/mL (≈ 131 µM); against Staphylococcus aureus [16], > 100 µg/mL; in the assay with Staphylococcus aureus [17], 25 µg/mL (≈ 65.7 µM).
